Experimental findings from patent US11860174B2, “Anti-cannabidiol antibody and uses thereof” (BOMI, LLC, priority 2017, dated 2024) are described below.

The experiment concerns the target T1, human CB2 receptors (Homo sapiens, UniProt P34972).
T1 construct: expressed in transfected cells; host or cells: CHO cells (membrane fraction)
In words: CHO-CB2 radioligand displacement binding (filtration). The conditions noted are these: membranes of CB2 cells, Cheng & Prusoff, n = 3 or 4. The method, then: CHO cells and membrane preparation. These were stably transfected with cDNA encoding human CB2 receptors. […] Cells were maintained at 37° C. and 5% CO2 in DMEM (f-12 HAM) with 2 mm Glutamine, Geneticin (600 μg ml−1) and Hygromycin (300 μg ml−1). […] CHO cells were suspended in 50 mm Tris buffer (pH 7.4) and 0.32 m sucrose and homogenized with an Ultra-Turrex homogenizer. The homogenate was diluted with 50 mm Tris buffer (pH 7.4) and centrifuged at 50,000×g for 1 hour to isolate the membranes.
CHO—CB2 binding. […] Binding was initiated by the addition of cell membranes (20-30 μg protein). Assays were carried out at 30° C. for 90 minutes before termination by addition of ice-cold wash buffer (50 mm Tris buffer, 1 mg ml−1 BSA) and vacuum filtration using a 12-well sampling manifold (Brandel Cell Harvester) and Whatman GF/B glass-fibre filters that had been soaked in wash buffer at 4° C. for 24 hours. Each reaction tube was washed three times with a 4 ml aliquot of buffer. The filters were oven-dried for 60 minutes and then placed in 5 ml of scintillation fluid (Ultima Gold XR, Packard). Radioactivity was quantified by liquid scintillation spectrometry. Specific binding was defined as the difference between the binding that occurred in the presence and absence of 1 μm reference cannabidiol. Protein assays were performed using a Bio-Rad Dc kit. […] […] Competitive binding curves were fitted with minimum values for displacement of radio ligand from specific binding sites constrained to zero.
Additionally, binding of an MCA, described herein, was tested for this reference sample. The resulting displacement and binding values were used as a reference standard against which 26 CBD samples (acquired from Natural Hemp Solutions, Atlanta Ga.) were compared.
(In general: Loss of bound radioactivity is the signal in a displacement assay; it reports binding, not function.)

Where [1] appears, read: labelled cannabinoid [3H]-CP55940.

T1 sequence (P34972 whole entry): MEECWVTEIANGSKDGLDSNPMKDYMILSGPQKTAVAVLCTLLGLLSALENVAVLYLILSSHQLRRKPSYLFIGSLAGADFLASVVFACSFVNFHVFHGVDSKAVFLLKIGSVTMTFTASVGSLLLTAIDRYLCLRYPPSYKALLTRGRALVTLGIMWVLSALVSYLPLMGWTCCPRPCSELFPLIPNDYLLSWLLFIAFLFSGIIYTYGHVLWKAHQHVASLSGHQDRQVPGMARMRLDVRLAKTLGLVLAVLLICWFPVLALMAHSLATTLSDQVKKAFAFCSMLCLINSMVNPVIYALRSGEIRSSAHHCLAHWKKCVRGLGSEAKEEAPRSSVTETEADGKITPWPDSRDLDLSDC

As a reminder, the Ki is a measure of affinity in units of concentration, obtained from inhibition or displacement. `CCCCCCC(C)(C)c1cc(OC)c2c(c1)OC(C)(C)[C@@H]1CC=C(C)C[C@@H]21` [Sample L759633] came in with an inhibition constant Ki under setting [1] of 6.4 ± 2.2 nM. As for `COc1ccc(C(=O)c2c(C)n(CCN3CCOCC3)c3cc(I)ccc23)cc1` [AM630], the inhibitory constant (Ki) is, setting by setting: under setting [1], 31.2 ± 12.4 nM; (labelled cannabinoid [3H]-W1N55212-2) 37.5 ± 15.4 nM.

As to `C=C1CC[C@@H]2[C@@H](C1)c1c(OC)cc(C(C)(C)CCCCCC)cc1OC2(C)C` [Sample L759656], the Ki under setting [1] stood at 11.8 ± 2.5 nM.
